# Assay results: US11807906B2, “Peroxisome biomarkers in HIV disease progression and peroxisome activating drugs for HIV treatment” (priority 2017, dated 2023)
# Entries after “also recorded” stand apart in the source; their conditions may differ.
# Legend:
# HIV = HIV p24 ELISA in niclosamide-pretreated HeLa CD4+ cells; format: cell-based; settings: HeLa CD4+ cells pretreated 24 hrs, HIV MOI=0.5, 48 hrs, vs DMSO, FIG. 17
# Protocol: (§1) HeLa CD4+ cells were pretreated with the indicated concentrations of the peroxisome proliferator, niclosamide for 24 hrs or DMSO alone (vehicle control). Cells were then infected with HIV, MOI=0.5) for 48 hrs after which levels of the viral protein p24 were measured by ELISA.
# HIV p24 protein = experiment: HIV p24 immunoblot in niclosamide-pretreated HeLa CD4+ cells; format: cell-based; settings: HeLa CD4+ cells pretreated 24 hrs, HIV MOI=0.5, 48 hrs, relative to DMSO, FIG. 18/19
# Protocol: as §1, with “p24 and peroxisomal protein” for “p24”, “immunoblotting. Actin served as loading control.” for “ELISA.”
# peroxisomal protein PEX7 = experiment: PEX7 immunoblot in niclosamide-pretreated HIV-infected HeLa CD4+ cells; format: cell-based, human; settings: 48 hrs, relative to DMSO
# Protocol: as §1, with “p24 and peroxisomal protein” for “p24”, “immunoblotting. Actin served as loading control.” for “ELISA.”
# [1] = test system: niclosamide-treated cells; experiment: Relative cell viability by ATP levels in cell lysates; format: cell-based; settings: below 1 micromolar, 72 hours, vs DMSO, FIG. 20
# Protocol: Cells treated with niclosamide or DMSO were harvested after 72 hours. Relative cell viability was determined by measuring ATP levels in the cell lysates.
smiles,measurement,setting,value
"O=C(Nc1ccc([N+](=O)[O-])cc1Cl)c1cc(Cl)ccc1O [niclosamide, 5-chloro-N-(2-chloro-4-nitrophenyl)-2-hydroxybenzamide]",HIV replication (levels of viral protein p24 by ELISA),HIV,potently and significantly inhibits HIV replication
same,HIV replication (levels of viral protein p24 by ELISA),HIV; listed as Niclosamide,significantly inhibited HIV replication
same,HIV p24 protein level by immunoblotting,HIV p24 protein,inhibits expression; also recorded: inhibits HIV replication
same,HIV p24 protein level by immunoblotting,HIV p24 protein; listed as Niclosamide,inhibited expression; also recorded: inhibited HIV replication
same,PEX7 protein level by immunoblotting,peroxisomal protein PEX7; FIG. 19,increases expression
same,PEX7 protein level by immunoblotting,"peroxisomal protein PEX7; FIG. 19, listed as Niclosamide",increased expression
same,"cytotoxicity (relative cell viability, ATP levels)",[1],not cytotoxic
